Values joined by “and” are separate entries in the source; they are usually repeats but may differ in a detail not shown here. Equal values may be shown once.
How the values were obtained:
[1] = Single dose 300 mg / 450 mg pharmacokinetic, safety and tolerability study in healthy male and female subjects; conditions: for concentration at 3 h / concentration at 4 h / concentration at 6 h / concentration at 8 h / concentration at 10 h / concentration at 12 h / concentration at 18 h / concentration at 24 h / concentration at […] / half-life / AUC(0-t) / Cmax / Tmax / concentration at 0 h / concentration at 0.5 h / concentration at 1 h / concentration at 2 h: plasma, po; for Percent of Dose in Urine (0-24 hr) / Ratio DOV 216,298/DOV 21,947 in urine (0-24 hr): Mean (SD)
Description: Fourteen subjects, divided equally between males and females, were enrolled in the study and randomized between test article (5/sex) and placebo (2/sex). […] All subjects met the inclusion and exclusion criteria for entry into the study as detailed in the protocol and signed an informed consent form.
The subjects were confined to the clinical study site from Day −1 to the morning of Day 2, when they underwent a brief physical examination, clinical laboratory tests, and a physician visit before they were discharged. On Day 7, they reported to the clinical site again and were confined to the site until the morning of Day 9. At that time, they underwent a complete physical examination, clinical laboratory tests, and a physician's visit before they were discharged from the study. All subjects were fasted overnight on Days −1 and 7 from approximately 22:00 to approximately 4 hours post-dose on Days 1 and 8, at which time they received a standard lunch.
Subjects that received the placebo (2/sex) ingested six identical looking capsules with no drug. […] Capsules on both days were ingested with 240 mL water. […] Samples were collected into lithium heparin-containing Vacutainers® and centrifuged at approximately 3000 rpm to obtain the plasma fraction. The plasma was split into two polypropylene tubes and stored at −20° C. […] The urine volumes were recorded and an aliquot was stored for drug concentration measurements.
Validated LC/MS/MS assays were used for analyses; the assay range for both analytes in plasma and urine were 5.00 to 2000 ng/mL.
Plasma concentration-time data for each subject were analyzed with WinNonlin, version 4.1 (Pharsight Corporation, Mountain View, Calif.) using a non-compartmental model. […] Plasma concentrations listed as not detected (ND) or below the lower limit of quantitation (LLOQ) were set to zero. The values of Cmax and Tmax were the observed values for each subject. AUC0-t was determined using the linear trapezoidal rule whenever the concentration data were increasing and the logarithmic trapezoidal rule any time that the concentration data were decreasing. The apparent λz was calculated as the negative slope of the log-linear terminal portion of the blood concentration-time curve using linear regression. To allow for accurate calculation of λz, a minimum of three observations, selected by WinNonlin, was used. The t½ was calculated as ln 2/λz. AUC0-t was extrapolated to infinity (AUC0-∞) as follows: AUC0-∞=AUC0-t+Clast/λz where Clast is the last quantifiable concentration. The apparent oral clearance (CL/F) was calculated as Dose/AUC0-∞. The apparent oral volume of distribution (Vz/F) was calculated as Dose/λz×AUC0-∞. The mean residence time from time zero to infinity (MRT0-∞) was calculated as AUMC0-∞/AUC0-∞.

[2] = In vitro metabolism in human hepatocytes; conditions: male, human, 4 h, 87 μM
Description: Cryopreserved human hepatocytes (male) that are prepared by XenoTech, LLC (Lenexa, Kans.), are thawed on the day of use and resuspended in Waymouth's incubation media. The enzymatic activity of hepatocytes is monitored using 7-ethoxycoumarin and 7-hydroxycoumarin as substrates. […] The incubations are carried out for 4 hours with 1×10^6 viable cells/ml. […] At 0 and 4 hour, cell suspensions are extracted using two volumes of ice cold methanol. After centrifugation, the extracts are stored at −20° C. until further sample processing. The solvent in the samples are dried under a stream of nitrogen, and resuspended in methanol:water (1:1) before analysis.
The extracts of the 4 hour incubation mixture are analyzed by liquid chromatography/electrospray ionization-mass spectrometry (LC/ESI-MS) in the positive and negative ion modes to screen for possible metabolites. HPLC Methods 1 and 2 are used to find potential metabolites, and the HPLC and mass spectrometry systems are described in Table 56. The same instrumentation and methods in HPLC Method 1 are used in HPLC Method 2 with the exception that the mobile phases and gradient are changed to 0.4% HCOOH in H2O for mobile A and CH3OH for mobile phase B. The mass spectrometer is LCQ™ Ion Trap Mass Spectrometer and is in either the positive or negative electrospray mode with the ion spray set at 4.5 kV. The capillary temperature is 250° C., the nitrogen sheath gas flow rate is ˜80 unit, the auxiliary nitrogen gas flow rate is 20 unit, and the collision gas is helium.

[3] = single oral 300 mg DOV 21,947 HCl IR
[4] = single oral 450 mg DOV 21,947 HCl IR

Compound: O=C1NCC2(c3ccc(Cl)c(Cl)c3)CC12 (stereo not shown) [EB-10101, 5-(3,4-dichloro-phenyl)-3-aza-bicyclo[3.1.0]hexan-2-one]
- concentration at 3 h ([1]; female, human, 450 mg): 1650 ng/mL
- concentration at 4 h ([1]; female, human, 450 mg): 2180 ng/mL
- concentration at 6 h ([1]; female, human, 450 mg): 2710 ng/mL
- concentration at 8 h ([1]; female, human, 450 mg): 2990 ng/mL
- concentration at 10 h ([1]; female, human, 450 mg): 3030 ng/mL
- concentration at 12 h ([1]; female, human, 450 mg): 2930 ng/mL
- concentration at 18 h ([1]; female, human, 450 mg): 2140 ng/mL
- concentration at 24 h ([1]; female, human, 450 mg): 2390 ng/mL
- concentration at […] ([1]; female, human, 450 mg): 0 ng/mL and 155 ng/mL and 539 ng/mL and 660 ng/mL
- half-life ([1]; female, human, 450 mg, t½ (Harmonic mean), single oral 450 mg DOV 21,947 HCl IR, N = 5): 24.5 h
- half-life ([1]; female, human, 450 mg, t½, single oral 450 mg DOV 21,947 HCl IR, N = 5, arithmetic mean): 41.8 h
- exposure to lactam greater than parent drug over 24 hr ([1]; human, in vivo): approximately 70%
- AUC(0-t) ([1]; male, human, 300 mg): 29200 ng·h/mL
- Cmax ([1]; male, human, 300 mg): 1740 ng/mL
- Tmax ([1]; male, human, 300 mg): 6.4 h
- concentration at 0 h ([1]; male, human, 300 mg): 0 ng/mL
- concentration at 0.5 h ([1]; male, human, 300 mg): 62.9 ng/mL
- concentration at 1 h ([1]; male, human, 300 mg): 404 ng/mL
- concentration at 2 h ([1]; male, human, 300 mg): 1040 ng/mL
- concentration at 3 h ([1]; male, human, 300 mg): 1490 ng/mL
- concentration at 4 h ([1]; male, human, 300 mg): 1470 ng/mL
- concentration at 6 h ([1]; male, human, 300 mg): 1520 ng/mL
- concentration at 8 h ([1]; male, human, 300 mg): 1590 ng/mL
- concentration at 10 h ([1]; male, human, 300 mg): 1670 ng/mL
- concentration at 12 h ([1]; male, human, 300 mg): 1410 ng/mL
- concentration at 18 h ([1]; male, human, 300 mg): 1100 ng/mL
- concentration at 24 h ([1]; male, human, 300 mg): 820 ng/mL
- concentration at […] ([1]; male, human, 300 mg): 3.03 ng/mL and 238 ng/mL and 629 ng/mL and 753 ng/mL
- half-life ([1]; male, human, 300 mg, t½ (Harmonic mean), single oral 300 mg DOV 21,947 HCl IR, N = 5): 13.7 h
- half-life ([1]; male, human, 300 mg, t½, single oral 300 mg DOV 21,947 HCl IR, N = 5, arithmetic mean): 15.3 h
- AUC(0-t) ([1]; male, human, 450 mg): 46100 ng·h/mL
- Cmax ([1]; male, human, 450 mg): 2550 ng/mL
- Tmax ([1]; male, human, 450 mg): 9.2 h
- concentration at 0 h ([1]; male, human, 450 mg): 0 ng/mL
- concentration at 0.5 h ([1]; male, human, 450 mg): 107 ng/mL
- concentration at 1 h ([1]; male, human, 450 mg): 388 ng/mL
- concentration at 2 h ([1]; male, human, 450 mg): 1620 ng/mL
- concentration at 3 h ([1]; male, human, 450 mg): 1980 ng/mL
- concentration at 4 h ([1]; male, human, 450 mg): 2150 ng/mL
- concentration at 6 h ([1]; male, human, 450 mg): 2320 ng/mL
- concentration at 8 h ([1]; male, human, 450 mg): 2360 ng/mL
- concentration at 10 h ([1]; male, human, 450 mg): 2520 ng/mL
- concentration at 12 h ([1]; male, human, 450 mg): 2310 ng/mL
- concentration at 18 h ([1]; male, human, 450 mg): 1880 ng/mL
- concentration at 24 h ([1]; male, human, 450 mg): 1450 ng/mL
- concentration at […] ([1]; male, human, 450 mg): 0 ng/mL and 214 ng/mL and 752 ng/mL and 954 ng/mL
- half-life ([1]; male, human, 450 mg, t½ (Harmonic mean), single oral 450 mg DOV 21,947 HCl IR, N = 5): 16.6 h
- half-life ([1]; male, human, 450 mg, t½, single oral 450 mg DOV 21,947 HCl IR, N = 5, arithmetic mean): 23.4 h
- λz ([1]; single oral 300 mg DOV 21,947 HCl IR, Female, N = 5): 0.046^b hr^−1
- λz ([1]; single oral 300 mg DOV 21,947 HCl IR, Male, N = 5): 0.051 h⁻¹
- Percent of Dose in Urine (0-24 hr) [1, 3]: 0.075 (0.024) Percent of Dose
- Ratio DOV 216,298/DOV 21,947 in urine (0-24 hr) [1, 3]: 0.195 (0.092)
- Mean Amount in Urine ([1]; single oral 300 mg DOV 21,947 HCl IR, Period 0-1 hr): 0.0 µg
- Mean Amount in Urine ([1]; single oral 300 mg DOV 21,947 HCl IR, Period 1-2 hr): 2.7 µg
- Mean Amount in Urine ([1]; single oral 300 mg DOV 21,947 HCl IR, Period 2-4 hr): 52.5 µg
- Mean Amount in Urine ([1]; single oral 300 mg DOV 21,947 HCl IR, Period 4-8 hr): 56.2 µg
- Mean Amount in Urine ([1]; single oral 300 mg DOV 21,947 HCl IR, Period 8-12 hr): 34.8 µg
- Mean Amount in Urine ([1]; single oral 300 mg DOV 21,947 HCl IR, Period 12-24 hr): 47.8 µg
- Mean Amount in Urine ([1]; single oral 300 mg DOV 21,947 HCl IR, Total (0-24 hr)): 194 µg
- λz ([1]; single oral 300 mg DOV 21,947 HCl IR, mean, N = 10): 0.049^b hr^−1
- λz ([1]; single oral 450 mg DOV 21,947 HCl IR, Female, N = 5): 0.028 h⁻¹
- λz ([1]; single oral 450 mg DOV 21,947 HCl IR, Male, N = 5): 0.042 h⁻¹
- Percent of Dose in Urine (0-24 hr) [1, 4]: 0.067 (0.035) Percent of Dose
- Ratio DOV 216,298/DOV 21,947 in urine (0-24 hr) [1, 4]: 0.256 (0.173)
- Mean Amount in Urine ([1]; single oral 450 mg DOV 21,947 HCl IR, Period 0-1 hr): 0.0 µg
- Mean Amount in Urine ([1]; single oral 450 mg DOV 21,947 HCl IR, Period 1-2 hr): 2.1 µg
- Mean Amount in Urine ([1]; single oral 450 mg DOV 21,947 HCl IR, Period 2-4 hr): 45.2 µg
- Mean Amount in Urine ([1]; single oral 450 mg DOV 21,947 HCl IR, Period 4-8 hr): 89.3 µg
- Mean Amount in Urine ([1]; single oral 450 mg DOV 21,947 HCl IR, Period 8-12 hr): 61.2 µg
- Mean Amount in Urine ([1]; single oral 450 mg DOV 21,947 HCl IR, Period 12-24 hr): 63.5 µg
- Mean Amount in Urine ([1]; single oral 450 mg DOV 21,947 HCl IR, Total (0-24 hr)): 261 µg
- λz ([1]; single oral 450 mg DOV 21,947 HCl IR, mean, N = 10): 0.035 h⁻¹
- share of the metabolites formed [2]: about 63%
